Results: the NIST ThermoML archive (doi:10.1021/je100927m)

Experiments:
[1] = refractive index (Na D-line) (dimensionless); settings: 298.15 K; 101.33 kPa; Liquid; Standard Abbe refractometry
[2] = Liquid; for mass density: 101.33 kPa; for speed of sound: Pulse-echo method

CCCCC(CC)CO (stereo unspecified) [2-ethyl-1-hexanol]
Settings | refractive index
[1] | 1.4292

[2]
Settings | mass density [kg/m3]
283.15 K | 839.89
288.15 K | 836.26
293.15 K | 832.62
298.14 K | 828.96
303.15 K | 825.28
308.15 K | 821.58
313.14 K | 817.86
318.15 K | 814.11
323.15 K | 810.33
328.15 K | 806.52
333.15 K | 802.68
338.14 K | 798.8
343.15 K | 794.87
348.15 K | 790.91
353.15 K | 786.89
358.15 K | 782.83
363.15 K | 778.72

speed of sound [m/s], [2]
Settings | 101 kPa | 15200 kPa | 30390 kPa | 45590 kPa | 60790 kPa | 75990 kPa | 91180 kPa | 101320 kPa
292.89 K | – | 1418.5 | 1487.2 | 1549.6 | 1607.2 | 1660.4 | 1710.5 | 1742
293.15 K | 1336.3 | – | – | – | – | – | – | –
298.15 K | 1318.4 | – | – | – | – | – | – | –
298.19 K | – | 1400.2 | 1470.1 | 1533.2 | 1591.5 | 1645.4 | 1696 | 1728
303.15 K | 1300.6 | 1383.5 | 1454.4 | 1518.4 | 1577.5 | 1631.8 | 1682.7 | 1715.1
308.13 K | – | 1367.2 | 1438.9 | 1503.8 | 1563.5 | 1618.6 | 1669.8 | 1702.5
308.15 K | 1282.8 | – | – | – | – | – | – | –
313.1 K | – | 1351.2 | 1424 | 1489.6 | 1549.7 | 1605.5 | 1657.2 | 1689.9
313.15 K | 1264.9 | – | – | – | – | – | – | –
318.15 K | 1247.1 | – | – | – | – | – | – | –
318.26 K | – | 1334.8 | 1408.8 | 1475.2 | 1535.9 | 1592.2 | 1644.5 | 1677.4
